Values of other authors, collected in PMC2693004 (Bioorganic & medicinal chemistry letters, 2009).
Entries after “also recorded” stand apart in the source; their conditions may differ.

Target: T1, recombinant human MAO-A (Homo sapiens, UniProt P21397)
T1 sequence (P21397 1-527): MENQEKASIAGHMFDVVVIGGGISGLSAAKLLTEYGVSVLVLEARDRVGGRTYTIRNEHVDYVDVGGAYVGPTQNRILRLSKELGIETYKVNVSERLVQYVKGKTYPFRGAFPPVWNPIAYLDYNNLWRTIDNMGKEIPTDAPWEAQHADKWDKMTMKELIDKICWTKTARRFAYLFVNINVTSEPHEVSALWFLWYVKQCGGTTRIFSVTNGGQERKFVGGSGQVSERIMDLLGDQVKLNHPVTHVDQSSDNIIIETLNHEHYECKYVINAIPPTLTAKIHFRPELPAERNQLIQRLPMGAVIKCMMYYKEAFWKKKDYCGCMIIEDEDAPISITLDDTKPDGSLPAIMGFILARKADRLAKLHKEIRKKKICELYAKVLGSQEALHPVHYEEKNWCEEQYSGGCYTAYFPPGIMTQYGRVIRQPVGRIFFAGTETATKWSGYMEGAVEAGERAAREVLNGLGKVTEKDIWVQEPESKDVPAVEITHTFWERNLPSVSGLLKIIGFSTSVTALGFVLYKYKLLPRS

| SMILES | binding to MAO-A |
| --- | --- |
| Cn1c(=O)c2c(nc(/C=C/c3cccc(Cl)c3)n2C)n(C)c1=O [CSC, (E)-8-(3-chlorostyryl)caffeine] | does not bind; also recorded: do not to bind |
| C(=CCc1ccccc1)Cc1ccccc1 [1,4-diphenyl-2-butene] | do not to bind |
